Where two headings read alike, the source gives them in different places.
Assays:
[1] = molecular target: TrkA (histidine-tagged recombinant human TrkA, cytoplasmic domain) (Homo sapiens (Human), UniProt P04629); test: TrkA ELISA Assay; type: biochemical; conditions: Table 1; ELISA, 500 μM ATP; read-out: TrkA Enzyme IC50
Outline: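 ELISA read-out: a peroxidase-linked anti-phosphotyrosine antibody (PY20, 0.2 μg/mL) with TMB substrate, absorbance at 450 nm after acid stop. The plate-bound substrate was poly(Glu,Ala,Tyr; 6:3:1) at 0.025 mg/mL, phosphorylated by the recombinant His-tagged human TrkA cytoplasmic domain in the presence of inhibitors.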

[2] = molecular target: Human Jak2 kinase domain (Homo sapiens (Human), UniProt O60674); test: Jak2 Inhibition Assay (Omnia kinase assay); type: biochemical; conditions: read-out: Jak2 Enzyme IC50
Chain of Human Jak2 kinase domain (O60674 808-1132): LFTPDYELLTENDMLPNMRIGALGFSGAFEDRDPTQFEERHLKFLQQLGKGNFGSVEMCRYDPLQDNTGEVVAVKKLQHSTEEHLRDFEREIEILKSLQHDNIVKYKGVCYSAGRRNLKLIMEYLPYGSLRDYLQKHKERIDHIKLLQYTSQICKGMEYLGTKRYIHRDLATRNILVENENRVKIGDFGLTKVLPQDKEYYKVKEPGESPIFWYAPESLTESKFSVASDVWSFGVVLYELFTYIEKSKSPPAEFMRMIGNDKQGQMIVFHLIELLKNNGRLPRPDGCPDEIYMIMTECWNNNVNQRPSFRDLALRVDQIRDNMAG

[3] = Table 1, 500 μM ATP, >1000 nM when >50% inhibition not observed at 1000 nM

Chain of TrkA (histidine-tagged recombinant human TrkA, cytoplasmic domain) (P04629 440-796): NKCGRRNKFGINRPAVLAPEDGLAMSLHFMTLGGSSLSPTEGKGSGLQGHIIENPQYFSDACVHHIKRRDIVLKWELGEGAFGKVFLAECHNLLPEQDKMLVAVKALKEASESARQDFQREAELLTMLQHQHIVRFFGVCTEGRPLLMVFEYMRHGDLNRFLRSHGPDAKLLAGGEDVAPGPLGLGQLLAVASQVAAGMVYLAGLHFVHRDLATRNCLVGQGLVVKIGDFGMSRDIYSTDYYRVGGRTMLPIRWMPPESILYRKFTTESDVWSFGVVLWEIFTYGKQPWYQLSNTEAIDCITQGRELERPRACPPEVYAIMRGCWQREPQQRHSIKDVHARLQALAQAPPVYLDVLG

| Structure (SMILES) | IC50 [1] | IC50 [2, 3] | IC50 [2] |
| --- | --- | --- | --- |
| CC1(NC(=O)c2cnn3ccc(N4[C@H](CO)CC[C@@H]4c4cncc(F)c4)nc23)CC1 [Example 214, 5-((2R,5S)-2-(5-fluoropyridin-3-yl)-5-(hydroxymethyl)pyrrolidin-1-yl)-N-(1-methylcyclopropyl)pyrazolo[1,5-a]pyrimidine-3-carboxamide] | 0.0086 µM | > 1 µM |  |
| CC(C)NC(=O)c1cnn2ccc(N3[C@H](CO)CC[C@@H]3c3cncc(F)c3)nc12 [Example 215, 5-((2R,5S)-2-(5-fluoropyridin-3-yl)-5-(hydroxymethyl)pyrrolidin-1-yl)-N-isopropylpyrazolo[1,5-a]pyrimidine-3-carboxamide] | 0.0153 µM | > 1 µM |  |
| CC(C)NC(=O)c1cnn2ccc(N3C[C@@H](O)C[C@@H]3c3cccc(F)c3)nc12 [Example 217, 5-((2R,4S)-2-(3-fluorophenyl)-4-hydroxypyrrolidin-1-yl)-N-isopropylpyrazolo[1,5-a]pyrimidine-3-carboxamide] | 0.0058 µM | 0.551 µM |  |
| CNC(=O)c1cnn2ccc(N3C[C@@H](O)C[C@@H]3c3cccc(F)c3)nc12 [Example 218, 5-((2R,4S)-2-(3-fluorophenyl)-4-hydroxypyrrolidin-1-yl)-N-methylpyrazolo[1,5-a]pyrimidine-3-carboxamide] | 0.0339 µM | > 1 µM |  |
| CC(C)NC(=O)c1cnn2ccc(N3[C@@H](c4cncc(F)c4)CC[C@@]3(C)CO)nc12 [Example 219, 5-((2S,5R)-5-(5-fluoropyridin-3-yl)-2-(hydroxymethyl)-2-methylpyrrolidin-1-yl)-N-isopropylpyrazolo[1,5-a]pyrimidine-3-carboxamide] | 0.188 µM | > 1 µM |  |
| C[C@H](NC(=O)c1cnn2ccc(N3[C@@H](c4cncc(F)c4)CC[C@@]3(C)CO)nc12)C(F)(F)F [Example 220, 5-((2S,5R)-5-(5-fluoropyridin-3-yl)-2-(hydroxymethyl)-2-methylpyrrolidin-1-yl)-N—((S)-1,1,1-trifluoropropan-2-yl)pyrazolo[1,5-a]pyrimidine-3-carboxamide] | 0.11 µM |  | > 1 µM |
| Cn1cc(F)cc([C@H]2CCCN2c2ccn3ncc(C(=O)NC(C)(C)C)c3n2)c1=O [Example 226, (R)—N-tert-butyl-5-(2-(5-fluoro-1-methyl-2-oxo-1,2-dihydropyridin-3-yl)pyrrolidin-1-yl)pyrazolo[1,5-a]pyrimidine-3-carboxamide] | 0.0105 µM | > 1 µM |  |
| Cn1cc(F)cc([C@H]2CCCN2c2ccn3ncc(C(=O)NC4CCC4)c3n2)c1=O [Example 230, (R)-N-cyclobutyl-5-(2-(5-fluoro-1-methyl-2-oxo-1,2-dihydropyridin-3-yl)pyrrolidin-1-yl)pyrazolo[1,5-a]pyrimidine-3-carboxamide] | 0.003 µM | 0.666 µM |  |
| Cn1cc(F)cc([C@H]2CCCN2c2ccn3ncc(C(=O)Nc4cccnc4)c3n2)c1=O [Example 231, (R)-5-(2-(5-fluoro-1-methyl-2-oxo-1,2-dihydropyridin-3-yl)pyrrolidin-1-yl)-N-(pyridin-3-yl)pyrazolo[1,5-a]pyrimidine-3-carboxamide] | 0.0087 µM | > 1 µM |  |
| Cn1cc(F)cc([C@H]2CCCN2c2ccn3ncc(C(=O)NCC4CC4)c3n2)c1=O [Example 232, (R)-N-(cyclopropylmethyl)-5-(2-(5-fluoro-1-methyl-2-oxo-1,2-dihydropyridin-3-yl)pyrrolidin-1-yl)pyrazolo[1,5-a]pyrimidine-3-carboxamide] | 0.0045 µM | > 1 µM |  |
| Cn1cc(F)cc([C@H]2CCCN2c2ccn3ncc(C(=O)N[C@@H]4CCCC[C@H]4O)c3n2)c1=O [Example 234, 5-((R)-2-(5-fluoro-1-methyl-2-oxo-1,2-dihydropyridin-3-yl)pyrrolidin-1-yl)-N-((1R,2R)-2-hydroxycyclohexyl)pyrazolo[1,5-a]pyrimidine-3-carboxamide] | 0.0107 µM | > 1 µM |  |
| Cn1cc(F)cc([C@H]2CCCN2c2ccn3ncc(C(=O)NC4(C)CC4)c3n2)c1=O [Example 237, (R)-5-(2-(5-fluoro-1-methyl-2-oxo-1,2-dihydropyridin-3-yl)pyrrolidin-1-yl)-N-(1-methylcyclopropyl)pyrazolo[1,5-a]pyrimidine-3-carboxamide] | 0.0021 µM | 0.616 µM |  |

Further lines, results first:

| IC50 [1] | IC50 [2, 3] | IC50 [2] | Structure (SMILES) |
| --- | --- | --- | --- |
| 0.0143 µM | > 1 µM |  | CC1(C)OCC(COc2ccc(F)cc2[C@H]2CCCN2c2ccn3ncc(C(N)=O)c3n2)O1 (stereo partly drawn) [Example 205, 5-((2R)-2-(2-((2,2-dimethyl-1,3-dioxolan-4-yl)methoxy)-5-fluorophenyl)pyrrolidin-1-yl)pyrazolo[1,5-a]pyrimidine-3-carboxamide] |
| 0.0039 µM | > 1 µM |  | CC1(C)OCC(COc2cc(F)cc([C@H]3CCCN3c3ccn4ncc(C(=O)NC5CC5)c4n3)c2)O1 (stereo partly drawn) [Example 206, N-cyclopropyl-5-((2R)-2-(3-((2,2-dimethyl-1,3-dioxolan-4-yl)methoxy)-5-fluorophenyl)pyrrolidin-1-yl)pyrazolo[1,5-a]pyrimidine-3-carboxamide] |
| 0.0017 µM | > 1 µM |  | O=C(NC1CC1)c1cnn2ccc(N3CCC[C@@H]3c3cc(F)cc(OCC(O)CO)c3)nc12 (stereo partly drawn) [Example 208, N-cyclopropyl-5-((2R)-2-(3-(2,3-dihydroxypropoxy)-5-fluorophenyl)pyrrolidin-1-yl)pyrazolo[1,5-a]pyrimidine-3-carboxamide] |
| 0.0171 µM | > 1 µM |  | NC(=O)c1cnn2ccc(N3CCC[C@@H]3c3cc(F)cc(OCC(O)CO)c3)nc12 (stereo partly drawn) [Example 209, 5-((2R)-2-(3-(2,3-dihydroxypropoxy)-5-fluorophenyl)pyrrolidin-1-yl)pyrazolo[1,5-a]pyrimidine-3-carboxamide] |
| 0.0033 µM | > 1 µM |  | O=C(NC1CC1)c1cnn2ccc(N3CCC[C@@H]3c3cc(F)ccc3OCC(O)CO)nc12 (stereo partly drawn) [Example 210, N-cyclopropyl-5-((2R)-2-(2-(2,3-dihydroxypropoxy)-5-fluorophenyl)pyrrolidin-1-yl)pyrazolo[1,5-a]pyrimidine-3-carboxamide] |
| 0.0493 µM | > 1 µM |  | Nc1ncc(F)cc1[C@H]1CCCN1c1ccn2ncc(C(=O)N3CCC3)c2n1 [Example 221, (R)-(5-(2-(2-amino-5-fluoropyridin-3-yl)pyrrolidin-1-yl)pyrazolo[1,5-a]pyrimidin-3-yl)(azetidin-1-yl)methanone] |
| 0.0524 µM | > 1 µM |  | O=C(NOCCO)c1cnn2ccc(N3CCC[C@@H]3c3cc(F)cnc3Cl)nc12 [Example 225, (R)-5-(2-(2-chloro-5-fluoropyridin-3-yl)pyrrolidin-1-yl)-N-(2-hydroxyethoxy)pyrazolo[1,5-a]pyrimidine-3-carboxamide] |
| 0.0123 µM | 0.446 µM |  | CC(C)NC(=O)c1cnn2ccc(N3CCC[C@@H]3c3cc(F)cn(C)c3=O)nc12 [Example 227, (R)-5-(2-(5-fluoro-1-methyl-2-oxo-1,2-dihydropyridin-3-yl)pyrrolidin-1-yl)-N-isopropylpyrazolo[1,5-a]pyrimidine-3-carboxamide] |
| 0.0759 µM | > 1 µM |  | Cn1cc(F)cc([C@H]2CCCN2c2ccn3ncc(C(=O)N[C@H](CO)C(C)(C)C)c3n2)c1=O [Example 233, 5-((R)-2-(5-fluoro-1-methyl-2-oxo-1,2-dihydropyridin-3-yl)pyrrolidin-1-yl)-N-((S)-1-hydroxy-3,3-dimethylbutan-2-yl)pyrazolo[1,5-a]pyrimidine-3-carboxamide] |
